Where “and” joins values, the source holds several entries; their conditions need not be identical. Identical values can stand only once.

We go through 1 molecule from patent publication US20080274543A1, “Neuronal Cell Propagation Using Rotating Wall Vessel” (THE ADMINISTRATORS OF THE TULANE EDUCATIONAL FUND, priority 2007, published 2008).

This experiment has as its system SY cells. Nature of the experiment: TUNEL apoptosis assay, TG-stimulated SY cells in 3-D versus 2-D culture. The format is cell-based, human. The procedure: SY cells (1×10^6) cultured in 2-D or 3-D were incubated with or without 10 nM TG. The 2-D and 3-D cells were harvested using trypsin, washed in PBS, and fixed for 5-10 min in 2% PFA. Prior to fixation, the 3-D-cultured cells treated inside of the RWV were separated from the beads using a 40-μm cell strainer (Becton Dickinson). The fixed cells were permeabilized in PBS/FSG/Triton and blocked with 10% NGS. Apoptosis was evaluated using the Apoptag TUNEL assay kit (Chemicon). The results were analyzed using a Leica TCS SP2 confocal microscope as described above. Cell morphology consistent with apoptosis including cell shrinkage, nuclear condensation and membrane blebbing were assessed along with the fluorescein staining for TUNEL. The number of apoptotic cells counted was divided by the total (500 minimum) number of cells counted. This protocol was also followed for evaluation of apoptosis in PC12 cells. An increased drug tolerance, 30-nM TG was used in the PC12 assay. 3-D-cultured PC12 samples were stimulated for 5 days after removal from the RWV to multi-well dishes.
Thapsigargin (TG) is known to induce apoptosis through the passive release of Ca^2+ from ER stores. These events lead to subsequent increases in cytosolic Ca^2+, stressing both the ER and the mitochondria (Elyaman et al., 2002; Nechushtan A, Smith C L, Lamensdorf I, Yoon S H, Youle R J. Bax and Bak coalesce into novel mitochondria-associated clusters during apoptosis. The Journal of cell biology, 2001; 153: 1265-76; Nguyen H N, Wang C, Perry D C. Depletion of intracellular calcium stores is toxic to SH-SY5Y neuronal cells. Brain Res, 2002; 924: 159-66; Scorrano et al., 2003; Zong W X, Li C, Hatzivassiliou G, Lindsten T, Yu Q C, Yuan J, Thompson C B. Bax and Bak can localize to the endoplasmic reticulum to initiate apoptosis. The Journal of cell biology, 2003; 162: 59-69). In order to determine inherent differences in apoptosis between the 3-D and 2-D cultured cells, the terminal uridine deoxynucleotidyl transferase dUTP nick end labeling (TUNEL) assay was used. […]

Consider `C/C=C(/C)C(=O)O[C@H]1C(C)=C2[C@H]([C@@H]1OC(=O)CCCCCCC)[C@@](C)(OC(C)=O)C[C@H](OC(=O)CCC)[C@@]1(O)[C@H]2OC(=O)[C@@]1(C)O` [TG, Thapsigargin], for which the “thapsigargin-induced apoptosis in 3D cultured SH-SY5Y cells versus monolayer” value (3D versus ML culture) is reported as “notably enhanced”. Also, where the note is “24 h, TG 10 nM”, the “degree of apoptosis in TG-stimulated versus control cells at 24 h” value is reported as “noticeable difference in the degree of apoptosis occurring in stimulated versus control cells was found only in the 3-D(RWV) cells”. For the same molecule, the “increase in TUNEL-positive (apoptotic) SY cells, 3-D versus 2-D culture, when treated with TG” value (TG 10 nM, 5 days, 3-D+TG versus 2-D+TG) is 4 to 7 fold and 4- to 7 fold.
